Laboratory results reported in publication PMC10620772, “Design, synthesis, and biological evaluation of new pyrimidine-5-carbonitrile derivatives as novel anti-cancer, dual EGFR^WT/COX-2 inhibitors with docking studies” (RSC Advances, 2023).

Assays:
[1] = test system: NCI/ADR-RES; assay: NCI60 antitumor screening; format: cell-based, human; settings: Homo sapiens; 10 μM single dose; NCI/ADR-RES (ovarian cancer); read-out: growth inhibition percent (GI%)
[2] = test system: SK-OV-3; assay: NCI60 antitumor screening; format: cell-based, human; settings: Homo sapiens; 10 μM single dose; SK-OV-3 (ovarian cancer); read-out: growth inhibition percent (GI%)
[3] = test system: SF-268; assay: NCI60 antitumor screening; format: cell-based, human; settings: Homo sapiens; 10 μM single dose; SF-268 (CNS cancer); read-out: growth inhibition percent (GI%)
[4] = test system: OVCAR-5; assay: NCI60 antitumor screening; format: cell-based, human; settings: Homo sapiens; 10 μM single dose; OVCAR-5 (ovarian cancer); read-out: growth inhibition percent (GI%)
[5] = test system: COLO 205; assay: NCI60 antitumor screening; format: cell-based, human; settings: Homo sapiens; 10 μM single dose; COLO 205 (colon cancer); read-out: growth inhibition percent (GI%)
[6] = test system: NCI60 cell lines panel; assay: NCI60 antitumor screening, full panel; format: cell-based, human; settings: Homo sapiens; 10 μM single dose; mean over NCI60 cell lines; read-out: Mean growth inhibition percent (GI%)
Summary of the method: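 Single-concentration screen at 10 μM across the NCI60 panel (leukaemia, NSCLC, colon, CNS, melanoma, ovarian, renal, prostate, breast). Results are expressed as percent growth inhibition (GI%) of treated lines.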

[7] = test system: U251; assay: NCI60 antitumor screening; format: cell-based, human; settings: Homo sapiens, U-251; 10 μM single dose; U251 (CNS cancer); read-out: growth inhibition percent (GI%)
[8] = test system: MCF7; assay: NCI60 antitumor screening; format: cell-based, human; settings: Homo sapiens; 10 μM single dose; MCF7 (breast cancer); read-out: growth inhibition percent (GI%)
[9] = test system: SNB-75; assay: NCI60 antitumor screening; format: cell-based, human; settings: Homo sapiens; 10 μM single dose; SNB-75 (CNS cancer); read-out: growth inhibition percent (GI%)
[10] = test system: ACHN; assay: NCI60 antitumor screening; format: cell-based, human; settings: Homo sapiens; 10 μM single dose; ACHN (renal cancer); read-out: growth inhibition percent (GI%)
[11] = test system: BT-549; assay: NCI60 antitumor screening; format: cell-based, human; settings: Homo sapiens; 10 μM single dose; BT-549 (breast cancer); read-out: growth inhibition percent (GI%)
[12] = test system: HCC-2998; assay: NCI60 antitumor screening; format: cell-based, human; settings: Homo sapiens; 10 μM single dose; HCC-2998 (colon cancer); read-out: growth inhibition percent (GI%)
[13] = test system: KM12; assay: NCI60 antitumor screening; format: cell-based, human; settings: Homo sapiens; 10 μM single dose; KM12 (colon cancer); read-out: growth inhibition percent (GI%)
[14] = test system: EKVX; assay: NCI60 antitumor screening; format: cell-based, human; settings: Homo sapiens; 10 μM single dose; EKVX (non-small cell lung cancer); read-out: growth inhibition percent (GI%)
[15] = test system: SK-MEL-2; assay: NCI60 antitumor screening; format: cell-based, human; settings: Homo sapiens; 10 μM single dose; SK-MEL-2 (melanoma); read-out: growth inhibition percent (GI%)
[16] = test system: SNB-19; assay: NCI60 antitumor screening; format: cell-based, human; settings: Homo sapiens; 10 μM single dose; SNB-19 (CNS cancer); read-out: growth inhibition percent (GI%)
[17] = test system: HS 578T; assay: NCI60 antitumor screening; format: cell-based, human; settings: Homo sapiens; 10 μM single dose; HS 578T (breast cancer); read-out: growth inhibition percent (GI%)
[18] = test system: SF-295; assay: NCI60 antitumor screening; format: cell-based, human; settings: Homo sapiens; 10 μM single dose; SF-295 (CNS cancer); read-out: growth inhibition percent (GI%)
[19] = test system: OVCAR-4; assay: NCI60 antitumor screening; format: cell-based, human; settings: Homo sapiens; 10 μM single dose; OVCAR-4 (ovarian cancer); read-out: growth inhibition percent (GI%)
[20] = test system: MOLT-4; assay: NCI60 antitumor screening; format: cell-based, human; settings: Homo sapiens; 10 μM single dose; MOLT-4 (leukaemia); read-out: growth inhibition percent (GI%)
[21] = test system: NCI-H460; assay: NCI60 antitumor screening; format: cell-based, human; settings: Homo sapiens; 10 μM single dose; NCI-H460 (non-small cell lung cancer); read-out: growth inhibition percent (GI%)

Structure (SMILES): N#Cc1c(-c2ccc(F)cc2)nc(SCc2ccc(F)cc2)nc1N1CCN(c2ccccc2)CC1 [4n, 2-((4-Fluorobenzyl)thio)-4-(4-fluorophenyl)-6-(4-phenylpiperazin-1-yl)pyrimidine-5-carbonitrile]
- inhibition at 10 µM [1]: < 10%
- inhibition at 10 µM [2]: < 10%
- inhibition at 10 µM [3]: 14.1%
- inhibition at 10 µM [4]: < 10%
- inhibition at 10 µM [5]: < 10%
- inhibition at 10 µM [6]: < 10%
- inhibition at 10 µM [7]: < 10%
- inhibition at 10 µM [8]: 24.8%
- inhibition at 10 µM [9]: 15.6%
- inhibition at 10 µM [10]: < 10%
- inhibition at 10 µM [11]: < 10%
- inhibition at 10 µM [12]: < 10%
- melting point: 180 to 182 °C
- inhibition at 10 µM [13]: < 10%
- inhibition at 10 µM [14]: 18.7%
- inhibition at 10 µM [15]: 10.6%
- inhibition at 10 µM [16]: < 10%
- inhibition at 10 µM [17]: < 10%
- inhibition at 10 µM [18]: < 10%
- inhibition at 10 µM [19]: 10.4%
- inhibition at 10 µM [20]: 12.4%
- inhibition at 10 µM [21]: < 10%
